# Assay results from patent US11414424B2, “Cardiac sarcomere inhibitors” (Cytokinetics, Inc., priority 2018, dated 2022).
# System: bovine cardiac myofibrils
# Assay: Myofibril assay: PK/LDH-coupled steady-state ATPase activity of skinned bovine cardiac myofibrils
# Format: biochemical
# Settings: Ca2+ activating to 75% of maximal rate
# Summary of the method: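 Steady-state ATPase of detergent-skinned bovine left-ventricular myofibrils (1 mg/mL), PK/LDH-coupled NADH read at 340 nm, in PIPES/MgCl2 buffer pH 6.8 with 50 μM ATP, 0.6 mM EGTA and CaCl2 set for 50% or 75% activation. Inhibition of activity measured.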
row,Compound,CDMF75 IC15
1,"CC(=O)N1CC2(C1)C(=O)N(c1ccc(C#N)c(F)c1)CC(=O)N2Cc1ccc(C(F)(F)F)cc1 [Compound 197, 4-(2-acetyl-6,9-dioxo-5-(4-(trifluoromethyl)benzyl)-2,5,8-triazaspiro[3.5]nonan-8-yl)-2-fluorobenzonitrile]",2.7 µM
2,"CC(C)N1CC(=O)N(Cc2ccc(Cl)cc2)C2(CN(c3cscn3)C2)C1=O [Compound 32, 5-(4-chlorobenzyl)-8-isopropyl-2-(thiazol-4-yl)-2,5,8-triazaspiro[3.5]-nonane-6,9-dione]",9.6 µM
3,"CC(C)N1CC(=O)N(Cc2ccc(Cl)cc2)C2(CC(=O)N(c3ccccn3)C2)C1=O (centres unmarked) [Compound 332, 6-(4-chlorobenzyl)-9-isopropyl-2-(pyridin-2-yl)-2,6,9-triazaspiro[4.5]decane-3,7,10-trione]",16.6 µM
4,"Cc1ccc(N2CC3(C2)C(=O)N(C(C)C)CC(=O)N3Cc2ccc(Cl)cc2)nn1 [Compound 55, 5-(4-chlorobenzyl)-8-isopropyl-2-(6-methylpyridazin-3-yl)-2,5,8-triazaspiro[3.5]-nonane-6,9-dione]",6.7 µM
5,"CC(C)N1CC(=O)N(Cc2ccc(C(F)(F)F)cc2)C2(CCN(c3cc(C#N)ccn3)C2)C1=O (centres unmarked) [Compound 88, 2-(9-isopropyl-7,10-dioxo-6-(4-(trifluoromethyl)-benzyl)-2,6,9-triazaspiro[4.5]decan-2-yl)isonicotinonitrile]",4.0 µM
6,"CC(C)N1CC(=O)N(Cc2ccc(Cl)cc2)C2(CN(c3ccnc(C4CC4)c3)C2)C1=O [Compound 34, 5-(4-chlorobenzyl)-2-(2-cyclopropylpyridin-4-yl)-8-isopropyl-2,5,8-triazaspiro[3.5]nonane-6,9-dione]",10.4 µM
7,"CNC(=O)N1CCC2(C1)C(=O)N(c1ccc(C#N)cc1)CC(=O)N2Cc1ccc(C(F)(F)F)cc1 (centres unmarked) [Compound 183, 9-(4-cyanophenyl)-N-methyl-7,10-dioxo-6-(4-(trifluoromethyl)benzyl)-2,6,9-triazaspiro[4.5]-decane-2-carboxamide]",4.6 µM
8,"CC(C)CN1CC(=O)N(Cc2ccc(Cl)cc2)C2(CCN(c3ccccn3)C2)C1=O (centres unmarked) [Compound 84, 6-(4-chlorobenzyl)-9-isobutyl-2-(pyridin-2-yl)-2,6,9-triazaspiro[4.5]-decane-7,10-dione]",4.0 µM
9,"Cc1cnc(N2CC3(C2)C(=O)N(C(C)C)CC(=O)N3Cc2ccc(Cl)cc2)s1 [Compound 44, 5-(4-chlorobenzyl)-8-isopropyl-2-(5-methyl-thiazol-2-yl)-2,5,8-triazaspiro[3.5]nonane-6,9-dione]",2.4 µM
10,"CC(=O)N1CC2(C1)C(=O)N(c1ccc(C#N)cc1F)CC(=O)N2Cc1ccc(F)cc1 [Compound 176, 4-(2-acetyl-5-(4-fluoro-benzyl)-6,9-dioxo-2,5,8-triazaspiro[3.5]nonan-8-yl)-3-fluorobenzonitrile]",8.5 µM
11,"CC(=O)N1CC2(C1)C(=O)N(c1ncc(C(F)F)cc1F)CC(=O)N2[C@@H](C)c1ccc(Cl)cc1 [Compound 564, (S)-2-acetyl-5-(1-(4-chlorophenyl)ethyl)-8-(5-(difluoromethyl)-3-fluoropyridin-2-yl)-2,5,8-triazaspiro[3.5]nonane-6,9-dione]",13.0 µM
12,"CC(C)N1CC(=O)N(Cc2ccc(C#N)cc2)C(c2ccc(Cl)cc2)C1=O (centres unmarked) [Compound 307, 4-((2-(4-chlorophenyl)-4-isopropyl-3,6-dioxo-piperazin-1-yl)methyl)-benzonitrile]",36.7 µM
13,"CNC(=O)N1CC2(C1)C(=O)N(C1CCCC1)CC(=O)N2Cc1ccc(C(F)(F)F)cc1 [Compound 70, 8-cyclopentyl-N-methyl-6,9-dioxo-5-(4-(trifluoromethyl)benzyl)-2,5,8-triazaspiro[3.5]-nonane-2-carboxamide]",9.5 µM
14,"CNC(=O)N1CCC2(C1)C(=O)N(Cc1ccc(OC)cc1)CC(=O)N2Cc1ccc(Cl)cc1 (centres unmarked) [Compound 334, 6-(4-chlorobenzyl)-9-(4-methoxybenzyl)-N-methyl-7,10-dioxo-2,6,9-triazaspiro[4.5]decane-2-carboxamide]",8.0 µM
15,"CC(C)N1CC(=O)N(Cc2ccc(Cl)cc2)C2(CCN(C(N)=O)C2)C1=O (single isomer, unassigned) [Compound 367B, 6-[(4-chlorophenyl)methyl]-7,10-dioxo-9-(propan-2-yl)-2,6,9-triazaspiro[4.5]decane-2-carboxamide]",>39 µM

# Continued, values first:
row,CDMF75 IC15,Compound
1,3.2 µM,"NC(=O)[C@H]1C[C@]2(C1)C(=O)N(c1ncc(Cl)cc1F)CC(=O)N2Cc1ccc(C(F)F)cc1 (single isomer, unassigned) [Compound 875B, 8-(5-chloro-3-fluoropyridin-2-yl)-5-(4-(difluoromethyl)benzyl)-6,9-dioxo-5,8-diazaspiro[3.5]nonane-2-carboxamide]"
2,5.3 µM,"O=C1C(CO)N(Cc2ccc(C(F)(F)F)cc2)C(=O)CN1c1ncc(Cl)cc1F (single isomer, unassigned) [Compound 857A, 1-(5-chloro-3-fluoropyridin-2-yl)-3-(hydroxymethyl)-4-(4-(trifluoromethyl)benzyl)piperazine-2,5-dione]"
3,2.3 µM,"N#Cc1ccc(N2CC(=O)N(Cc3ccc(C(F)(F)F)cc3)C3(CN(C(=O)NC4CC4)C3)C2=O)cc1F [Compound 199, 8-(4-cyano-3-fluorophenyl)-N-cyclopropyl-6,9-dioxo-5-(4-(trifluoromethyl)benzyl)-2,5,8-triazaspiro[3.5]nonane-2-carboxamide]"
4,2.9 µM,"Cc1ccc(CN2C(=O)CN(c3ncc(Cl)cc3F)C(=O)C2C2COC2)cc1F (centres unmarked) [Compound 664, 1-(5-chloro-3-fluoropyridin-2-yl)-4-(3-fluoro-4-methylbenzyl)-3-(oxetan-3-yl)piperazine-2,5-dione]"
5,0.9 µM,"N#Cc1ccc(N2CC(=O)N(Cc3ccc(C(F)(F)F)cc3)C3(COC3)C2=O)c(F)c1 [Compound 280, 4-(6,9-dioxo-5-(4-(trifluoromethyl)benzyl)-2-oxa-5,8-diazaspiro[3.5]-nonan-8-yl)-3-fluorobenzonitrile]"
6,5.0 µM,"CC(=O)N1CC2(C1)C(=O)N(c1ccc(Cl)cc1F)CC(=O)N2Cc1ccc(F)cc1 [Compound 785, 2-acetyl-8-(4-chloro-2-fluorophenyl)-5-(4-fluorobenzyl)-2,5,8-triazaspiro[3.5]nonane-6,9-dione]"
7,8.6 µM,"O=C1C(C23CC(O)(C2)C3)N(Cc2ccc(F)cc2)C(=O)CN1c1ncc(Cl)cc1F (centres unmarked) [Compound 844, 1-(5-chloro-3-fluoropyridin-2-yl)-4-(4-fluorobenzyl)-3-(3-hydroxybicyclo[1.1.1]-pentan-1-yl)piperazine-2,5-dione]"
8,13.0 µM,"Cc1cc(N2CCC3(C2)C(=O)N(C(C)C)CC(=O)N3Cc2ccc(C(F)(F)F)cc2)cc(C)n1 (centres unmarked) [Compound 77, 2-(2,6-dimethylpyridin-4-yl)-9-isopropyl-6-(4-(trifluoromethyl)benzyl)-2,6,9-triazaspiro[4.5]-decane-7,10-dione]"
9,3.8 µM,"Cc1ccc(CN2C(=O)CN(c3ncc(Cl)cc3F)C(=O)C2C23CC(C(N)=O)(C2)C3)cc1 (centres unmarked) [Compound 792, 3-(4-(5-chloro-3-fluoro-pyridin-2-yl)-1-(4-methyl-benzyl)-3,6-dioxopiperazin-2-yl)bicyclo[1.1.1]pentane-1-carboxamide]"
10,0.53 µM,"CC(=O)N1CC2(C1)CC1(C2)C(=O)N(c2ncc(Cl)cc2F)CC(=O)N1Cc1ccc(Cl)cc1 [Compound 831, 2-acetyl-10-(5-chloro-3-fluoropyridin-2-yl)-7-(4-chlorobenzyl)-2,7,10-triazadispiro[3.1.56.14]-dodecane-8,11-dione]"
11,8.9 µM,"CNC(=O)N1CC2(C1)C(=O)N(c1ccc(F)cc1)CC(=O)N2Cc1ccc(C(F)(F)F)cc1 [Compound 149, 8-(4-fluorophenyl)-N-methyl-6,9-dioxo-5-(4-(trifluoromethyl)benzyl)-2,5,8-triazaspiro[3.5]-nonane-2-carboxamide]"
12,10.1 µM,"COc1cnc(N2CC(=O)N(Cc3ccc(C(F)(F)F)cc3)C(C3COC3)C2=O)c(F)c1 (racemic) [Compound 703, 1-(3-fluoro-5-methoxypyridin-2-yl)-3-(oxetan-3-yl)-4-(4-(trifluoromethyl)benzyl)piperazine-2,5-dione]"
13,1.3 µM,"CC1(C(F)F)C(=O)N(c2ncc(Cl)cc2F)CC(=O)N1Cc1ccc(Cl)cc1 (centres unmarked) [Compound 636, 1-(5-chloro-3-fluoropyridin-2-yl)-4-(4-chlorobenzyl)-3-(difluoromethyl)-3-methylpiperazine-2,5-dione]"
14,4.9 µM,"NC(=O)C12CC(C3C(=O)N(c4ncc(Cl)cc4F)CC(=O)N3Cc3ccc(C(F)F)cc3)(C1)C2 (centres unmarked) [Compound 790, 3-(4-(5-chloro-3-fluoro-pyridin-2-yl)-1-(4-(difluoromethyl)benzyl)-3,6-dioxopiperazin-2-yl)bicyclo[1.1.1]pentane-1-carboxamide]"
15,1.3 µM,"COC(=O)N1CC2(C1)C(=O)N(c1ncc(Cl)cc1F)CC(=O)N2[C@@H](C)c1ccc(C(F)(F)F)cc1 [Compound 615, methyl (S)-8-(5-chloro-3-fluoropyridin-2-yl)-6,9-dioxo-5-(1-(4-(trifluoro-methyl)phenyl)ethyl)-2,5,8-triazaspiro[3.5]-nonane-2-carboxylate]"
16,0.3 µM,Cc1cnc(C2CC3(C2)C(=O)N(c2ccc(C#N)cc2F)CC(=O)N3Cc2ccc(C(F)(F)F)cc2)o1 (centres unmarked) [Compound 436B]

# Same assay, conditions: Ca2+ activating to 75% of maximal rate, listed as 838A
row,CDMF75 IC15,Compound
1,2.3 µM,"O=C1C(C23CC(O)(C2)C3)N(Cc2ccc(C(F)(F)F)cc2)C(=O)CN1c1ncc(Cl)cc1F (single isomer, unassigned) [Enantiomer 838A, 1-(5-chloro-3-fluoropyridin-2-yl)-3-(3-hydroxybicyclo[1.1.1]pentan-1-yl)-4-(4-(trifluoromethyl)benzyl)piperazine-2,5-dione]"
